Test results: ChEMBL document CHEMBL1142202, “Putative role of beta-1,3 glucans in Candida albicans biofilm resistance” (2007)
Values after ≈ are worked out from the molar mass of the structure shown. Active and inactive are the calls of the source. No cut-off for these calls is given here.

Experiments:
Candida albicans [1] = test: Increase in antifungal activity against Candida albicans K1 biofilm cells assessed as 50 percent reduction of optical density in presence of beta 1,3 glucanase after 48 hrs by XTT assay; format: functional
Candida albicans [2] = test: Increase in antifungal activity against Candida albicans K1 biofilm cells assessed as 80 percent reduction of optical density in presence of beta 1,3 glucanase after 48 hrs by XTT assay; format: functional
Candida albicans [3] = test: Antifungal activity against planktonic Candida albicans K1; format: functional
Candida albicans [4] = test: Effect on biofilm cell viability of Candida albicans K1 at 1000 ug/ml; format: functional, organism-based
Candida albicans [5] = test: Antifungal activity against planktonic Candida albicans K1 in presence of biofilm material after 48 hrs by CLSI M27 A micro-broth method; format: functional; conditions: K1, 48 h
Candida albicans [6] = test: Antifungal activity against planktonic Candida albicans K1 in presence of laminarin after 48 hrs by CLSI M27 A micro-broth method; format: functional; conditions: K1, 48 h
Candida albicans [7] = test: Increase in drug binding to Candida albicans K1 biofilm cell walls, supernatant and matrix as compared to respective planktonic controls; format: functional, organism-based
Candida albicans [8] = test: Antifungal activity against Candida albicans K1 biofilms in in-vivo rat catheter model in presence of beta 1,3-glucanase; format: functional, organism-based

Compound | fractional inhibitory concentration index (FICI) (Candida albicans [1]) | fractional inhibitory concentration index (FICI) (Candida albicans [2]) | MIC (Candida albicans [3]) | Activity (Candida albicans [4]) | MIC (Candida albicans [5]) | MIC (Candida albicans [6]) | Activity (Candida albicans [7]) | Activity (Candida albicans [8])
C[C@@H]1[C@H](O)[C@@H](C)/C=C/C=C/C=C/C=C/C=C/C=C/C=C/[C@H](O[C@@H]2O[C@H](C)[C@@H](O)[C@H](N)[C@@H]2O)C[C@@H]2O[C@](O)(C[C@@H](O)C[C@@H](O)[C@H](O)CC[C@@H](O)C[C@@H](O)CC(=O)O[C@H]1C)C[C@H](O)[C@H]2C(=O)O [AMPHOTERICIN B] | 0.2 | 0.21 |  |  |  |  |  | 
OC(Cn1cncn1)(Cn1cncn1)c1ccc(F)cc1F [FLUCONAZOLE] | 0.31 | 0.1 | 0.5 µg/mL (≈ 1.63 µM) | inactive | > 128 µg/mL | > 128 µg/mL | Active | Active
